This is an account of results in patent US20220380310A1, “P2X7R ANTAGONISTS” (priority 2019, published 2022).

Where a name gives a salt, the structure may show the parent alone.

The assay has as its target T1, P2X7R (Homo sapiens, UniProt Q99572).
T1 construct: expressed in transfected cells; host or cells: HEK-293
T1 sequence (Q99572 1-595): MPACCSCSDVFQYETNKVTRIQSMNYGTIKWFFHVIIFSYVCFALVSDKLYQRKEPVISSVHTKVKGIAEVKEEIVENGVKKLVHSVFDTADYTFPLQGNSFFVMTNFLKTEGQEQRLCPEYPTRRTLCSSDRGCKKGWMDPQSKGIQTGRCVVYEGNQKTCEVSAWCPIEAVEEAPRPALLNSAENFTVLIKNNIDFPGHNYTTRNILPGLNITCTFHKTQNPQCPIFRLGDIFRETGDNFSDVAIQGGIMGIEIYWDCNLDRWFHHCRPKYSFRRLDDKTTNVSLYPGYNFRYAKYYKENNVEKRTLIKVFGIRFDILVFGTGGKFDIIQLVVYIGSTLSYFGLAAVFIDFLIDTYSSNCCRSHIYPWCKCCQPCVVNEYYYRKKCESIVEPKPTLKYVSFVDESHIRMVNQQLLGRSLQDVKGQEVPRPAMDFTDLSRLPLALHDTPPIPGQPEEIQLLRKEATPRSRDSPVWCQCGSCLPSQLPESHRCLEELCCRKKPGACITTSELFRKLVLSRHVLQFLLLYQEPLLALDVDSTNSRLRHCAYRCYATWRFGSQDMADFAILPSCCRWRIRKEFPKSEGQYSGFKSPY
The assay can be described thus: Yo-Pro-1 uptake assay (Yo-Pro-1 Assay) in HEK-293 cells transiently transfected with P2X7R. In kind it is cell-based. Particulars: for remaining activity at 5 µM: HEK293, compound at 5 μM, 30 μM bzATP stimulus, reading 1 hour after stimulation, transfected HEK-293 cells, read-out: Percentage of activity remains in the presence of the compound at 5 μM, P2X7R (Yo-Pro-1 Assay); for IC50: HEK-293 cells transiently transfected with P2X7R, 30 μM bzATP as stimulus, readings 1 hour after stimulation, estimated from dose-response curves. An excerpt:
Yo-Pro-1 Iodide (Cat. No Y3603 from Fisher Scientific) is a fluorescent DNA-binding dye with a MW of 629 Da. This method is based upon the Yo-Pro-1 entrance to cells through the dilated or “large pore form” of P2X7R and its binding to intracellular DNA whereby it increases its fluorescence intensity (J. Pharmacol. Exp. Ther. 308, 1053-1061). The dye has an absorption spectrum compatible with excitation at 488 nm by argon laser sources and its emission wavelength is in the range of 515-575 nm. This Yo-Pro-1 uptake was measured in HEK-293 cells transiently transfected with P2X7R (J. Biol. Chem. 290, 7930-7942). In Brief, HEK-293 cells were seeded in growth medium at approximately 20,000 cells/well in a 96-well plate on day 1. Transfection was performed on day 2 using Lipofectamine 2000 with the P2X7R DNA plasmid at the concentration of 1.7 μg/ml. The transfection solution was replaced with the growth medium 4 hours later. Fluorescent assays were conducted on day 4. On day 4, the medium was removed, the cells were washed with phosphate buffered saline (PBS) (Cat. No. MT21040CV from Fisher Scientific). Then, 25 μl of PBS were first loaded to each well followed by 25 μl of various test compounds. The third 25 μl of solution contained a mixture of Yo-Pro-1 and stimulus bzATP (2′(3′)-O-(4-Benzoylbenzoyl)adenosine-5′-triphosphate tri(triethylammonium) salt). The final concentration of Yo-Pro-1 was 2.5 μM and of bzATP 30 μM. Fluorescence increases were measured every 30 minutes in a microplate device with excitation at 475 nm and emission wavelength in the range of 500-550 nm. PPADS (Pyridoxalphosphate-6-azophenyl-2′,4′-disulfonic acid tetrasodium) was used as the positive control. The wells with no test compounds added nor bzATP and only containing PBS and Yo-Pro-1 were served as the negative control (N Contl). The positive control (P Contl) wells were the same as N Contl but contained the stimulus, bzATP in this case.
Data used for analysis were from microplate readings 1 hour after bzATP stimulation. The result of each well was first normalized by its corresponding base microplate reading. The base microplate reading was the first reading right after all components were added. Then, the negative control signal was subtracted from. In the negative control, the test compound and the stimulus were replaced by PBS. An average of six highest values of the plate (AVG) were considered as 100% and the value of each well was divided by AVG and presented as the relative values in percentages.
For comparison of the antagonistic effectiveness of the compounds of this invention among P2X receptors, assays were conducted at 5 μM. Among 55 compounds tested, 29 can reduce the P2X7R activity to […] of the normal activity (Table 2).

Consider `O=C(CCc1ccccc1)N1CCN(S(=O)(=O)c2ccc(NC3CCCCC3)cc2)CC1` [#33], for which the remaining activity at 5 µM is -8.5% and the 50% inhibitory concentration (IC50) was 0.4 µM.
In the case of `O=S(=O)(c1ccccc1)C1CN(S(=O)(=O)c2ccc(N3CCOCC3)cc2)C1` [#11], the remaining activity at 5 µM was 80.9% and the IC50 is 9.9 µM.
For the compound `O=C(CCc1ccccc1)NC1CCCN(S(=O)(=O)c2ccc(N3CCC(F)(F)CC3)cc2)C1` (stereo not shown) [#46], the remaining activity at 5 µM is -8.6% and the IC50 was 3.8 µM.
For `O=C(NCCc1ccccc1)C1CCN(S(=O)(=O)c2ccc(N3CCCC3)cc2)CC1` [#21], in that order: 36.2% and 0.9 µM.
As for `CN1CCN(c2ccc(S(=O)(=O)N3CCCC(NC(=O)CCc4ccccc4)C3)cc2)CC1` (stereo not shown) [#18], the remaining activity at 5 µM is 41.5% and the half-maximal inhibitory concentration (IC50) was 31.2 µM.
In the case of `O=C(CCc1ccccc1)NC1CCCN(S(=O)(=O)c2ccc(N3CCC(Oc4ccccc4)CC3)cc2)C1` (stereo not shown) [#38], the remaining activity at 5 µM was found to be 7.5% and the IC50 was 0.9 µM.
For `O=C(NCCc1ccccc1)C1CCCN(S(=O)(=O)c2ccc(N3CCOCC3)cc2)C1` (stereo not shown) [#24], in that order: 32.6% and 10.2 µM.
`CC(C)N(C(C)C)S(=O)(=O)c1ccc(N2CCCC(NC(=O)CCc3ccccc3)C2)cc1` (stereo not shown) [#49]: the remaining activity at 5 µM stood at 1.4% and the IC50 was 2.6 µM.
For `CC(C)COc1ccc(S(=O)(=O)N2CCCC(NC(=O)CCc3ccccc3)C2)cc1` (stereo not shown) [#6], the remaining activity at 5 µM came to 10.7% and the IC50 is 2.7 µM.
For `O=C(CCc1ccccc1)N1CCN(S(=O)(=O)c2ccc(F)cc2)CC1` [#30], in that order: 52.2% and 1490 µM.
For `O=C(CCc1ccccc1)NC1CCCN(S(=O)(=O)c2ccc(-n3cc(Br)cn3)cc2)C1` (stereo not shown) [#9], the remaining activity at 5 µM came to 10.2% and the IC50 is 16 µM.
On to `O=C(CCc1ccccc1)NC1CCCN(S(=O)(=O)c2ccc(N3CCCC3)cc2)C1` (stereo not shown) [#13], for which the remaining activity at 5 µM turned out to be 0.8% and the IC50 was 1.6 µM.
For the compound `CC(C)S(=O)(=O)c1ccc(N2CCCC(NC(=O)CCc3ccccc3)C2)cc1` (stereo not shown) [#7], the remaining activity at 5 µM was determined as 14.1% and the IC50 was 6 µM.
For `O=C(CCc1ccccc1)NC1CCCN(c2ccc(S(=O)(=O)N3CCCC3)cc2)C1` (stereo not shown) [#55], in that order: 4.6% and 2.9 µM.
Take `O=S(=O)(c1ccccc1)C1CN(S(=O)(=O)c2ccc(N3CCCCC3)cc2)C1` [#10]: the remaining activity at 5 µM came to 70.1% and the IC50 was 5.9 µM.
Take `O=C(CCc1ccccc1)NC1CCCN(c2ccc(S(=O)(=O)NC3CCCCC3)cc2)C1` (stereo not shown) [#51]: the remaining activity at 5 µM is -1% and the IC50 was 3.1 µM.
In the case of `NS(=O)(=O)c1ccc(N2CCCC(NC(=O)CCc3ccccc3)C2)cc1` (stereo not shown) [#53], the remaining activity at 5 µM is -0.5% and the IC50 was 4.6 µM.
For `CC(C)(C)OC(=O)N1CCN(c2ccc(S(=O)(=O)N3CCN(C(=O)CCc4ccccc4)CC3)cc2)CC1` [#31], the remaining activity at 5 µM came to 12.9% and the IC50 is 3 µM.
Take `CC1CCN(c2ccc(S(=O)(=O)N3CCCC(NC(=O)CCc4ccccc4)C3)cc2)CC1` (stereo not shown) [#40]: the remaining activity at 5 µM stood at 9.1% and the IC50 is 0.8 µM.
For `CC(C)(C)OC(=O)N1CCN(c2ccc(S(=O)(=O)N3CCC(C(=O)NCCc4ccccc4)CC3)cc2)CC1` [#22], in that order: 43% and 12.6 µM.
For `O=C(CCc1ccccc1)NC1CCCN(S(=O)(=O)c2ccc(F)cc2)C1` (stereo not shown) [#3], in that order: 13.5% and 3.2 µM.
For `O=C(CCc1ccccc1)NC1CCCN(S(=O)(=O)c2ccc(OCc3ccccc3)cc2)C1` (stereo not shown) [#4], in that order: 38.4% and 8.2 µM.
As to `CC(C)(C)OC(=O)N1CCC(C2CCN(c3ccc(S(=O)(=O)N4CCCC(NC(=O)CCc5ccccc5)C4)cc3)CC2)CC1` (stereo not shown) [#41], the remaining activity at 5 µM was 18.3% and the IC50 was 1.8 µM.
Consider `CCCCNc1ccc(S(=O)(=O)N2CCC(C(=O)O)CC2)cc1` [#27], for which the remaining activity at 5 µM was determined as 59% and the IC50 is 9.3 µM.
As to `CC1CCCN(c2ccc(S(=O)(=O)N3CCCC(NC(=O)CCc4ccccc4)C3)cc2)C1` (stereo not shown) [#44], the remaining activity at 5 µM is -5.1% and the IC50 was 0.1 µM.
As for `O=C(CCc1ccccc1)N1CCN(S(=O)(=O)c2ccc(N3CCCCC3)cc2)CC1` [#34], the remaining activity at 5 µM was 4.8% and the IC50 is 2.7 µM.
Consider `CN(C)c1ccc(S(=O)(=O)N2CCCC(NC(=O)CCc3ccccc3)C2)cc1` (stereo not shown) [#14], for which the remaining activity at 5 µM was -6.1% and the IC50 is 1.4 µM.
With `COCCOc1ccc(S(=O)(=O)N2CCCC(NC(=O)CCc3ccccc3)C2)cc1` (stereo not shown) [#17], the remaining activity at 5 µM came to 53.4% and the IC50 is 16.1 µM.
For `O=C(NCCc1ccccc1)C1CCN(S(=O)(=O)c2ccc(N3CCOCC3)cc2)CC1` [#23], in that order: 35.8% and 26.6 µM.
For `CCCCNc1ccc(S(=O)(=O)N2CCCC(NC(=O)CCc3ccccc3)C2)cc1` (stereo not shown) [#15], in that order: -12.2% and 1 µM.
For `O=C(CCc1ccccc1)NC1CCCN(S(=O)(=O)c2ccc(N3CCOCC3)cc2)C1` (stereo not shown) [#12], in that order: 44.3% and 6.7 µM.
With `O=C(CCc1ccccc1)NC1CCCN(S(=O)(=O)c2ccc(N3CCC(C(F)(F)F)CC3)cc2)C1` (stereo not shown) [#42], the remaining activity at 5 µM was -1.7% and the IC50 is 0.9 µM.
Take `O=C(CCc1ccccc1)N1CCN(S(=O)(=O)c2ccc(N3CCOCC3)cc2)CC1` [#32]: the remaining activity at 5 µM came out at 54.3% and the IC50 is 3.8 µM.
With `CC1CCCCN1c1ccc(S(=O)(=O)N2CCCC(NC(=O)CCc3ccccc3)C2)cc1` (stereo not shown) [#47], the remaining activity at 5 µM is -7.4% and the IC50 is 0.1 µM.
On to `O=C(NCCc1ccccc1)C1CCN(S(=O)(=O)c2ccc(N3CCCCC3)cc2)CC1` [#20], for which the remaining activity at 5 µM was 7% and the IC50 was 1 µM.
Consider `CCOc1ccc(S(=O)(=O)N2CCCC(NC(=O)CCc3ccccc3)C2)cc1` (stereo not shown) [#37], for which the remaining activity at 5 µM amounted to 82.7% and the IC50 was 28.5 µM.
On to `CC(C)OC1CCN(c2ccc(S(=O)(=O)N3CCCC(NC(=O)CCc4ccccc4)C3)cc2)CC1` (stereo not shown) [#39], for which the remaining activity at 5 µM was found to be 11.1% and the IC50 was 3.9 µM.
For `O=C(CCc1ccccc1)N1CCN(S(=O)(=O)c2ccc(N3CCCC3)cc2)CC1` [#35], the remaining activity at 5 µM came to 23.6% and the IC50 was 3.3 µM.
Regarding `O=C(CCc1ccccc1)NC1CCCN(c2ccc(S(=O)(=O)Nc3ccccc3)cc2)C1` (stereo not shown) [#50], the remaining activity at 5 µM is -1.1% and the concentration for half-maximal inhibition (IC50) is 0.6 µM.
For the compound `O=C(CCc1ccccc1)NC1CCCN(S(=O)(=O)c2ccc(F)c(Cl)c2)C1` (stereo not shown) [#43], the remaining activity at 5 µM was determined as 23.5% and the IC50 was 3 µM.
Regarding `O=C(CCc1ccccc1)N1CCNCC1` [#29, hydrochloride], the remaining activity at 5 µM turned out to be 88.1% and the IC50 is 10.1 µM.

Usually IC50 stands for the midpoint of a concentration-inhibition curve.
